In patent US20070219146A1, “Synergistic Pharmaceutical And/Or Neutraceutical Flavanoid Composition For Management Of Diabetes Mellitus” (priority 2006, published 2007):

Assays:
Alloxan diabetic mice [1] = test: Acute study of Cocoa Flavanoid, blood sugar level in Alloxan diabetic mice; type: in vivo, Swiss Albino mice (male); conditions: Glyburide 10 mg/kg; for Summary in percentage (Blood sugar level): reduction versus Normal
Experimental: Swiss Albino mice (male) in the weight range 25 to 30 grams were studied for acute affect. They were made diabetic by the admnistration of Alloxan (with admnistration of 70 mg/kg Alloxan and in 48 hours the animals develop diabetes). As the mice became diabetic and the blood sugar was above […], they were grouped into […] of six each. Each group was administered by the test drug at 25 mg/kg, 50 mg/kg 100 mg/kg and 250 mg/kg body weight. One group was administered a positive control drug glyburide at 10 mg/kg of body weight. Blood samples were drawn at 2 hour, 4 hour, 6 hour and 24 hour intervals for all mice. The blood sugar pattern is studied. It has been found out that the best results are obtained for a dose of 50 mg/kg body weight at 2 hours after administration and it increases up to the 6th hour. Good result is obtained for 100 mg/kg drug. […] The effect of 50 mg/kg compared very well with the effect of positive control drug glyburide at 10 mg/kg body weight.
This is an interesting finding that the hypoglycemic effect is best for a dose ranging between 50 mg to 100 mg/kg of body weight.

Alloxan diabetic mice [2] = test: Sub acute study (28 days) of Cocoa Flavanoid, blood sugar level in Alloxan diabetic mice; type: in vivo, Swiss Albino mice (Male); conditions: Glyburide 10 mg/kg; for Summary in percentage (Blood sugar level): reduction versus Normal
Experimental: Swiss Albino mice (Male) in the weight range of 25 to 30 gram were studied for sub acute effect for 28 days. The mice were made diabetic by admnistration of Alloxan. As the mice became diabetic and the blood sugar was above […] they were chosen for the study. 4 groups were made. One group was given 50 mg/kg, 2nd group 100 mg/kg, 3rd group 250 mg/kg and the 4th group positive control glyburide at 10 mg/kg. Treatment was given for 28 days.
A very interesting observation was made that the best effect was produced by the dose of 100 mg/kg body weight. The effect started by 7th day and increased up to 28th day. […] Unlike acute study, the sub acute study has confirmed that 100 mg/kg given the most optimal blood sugar reduction. This effect was sustained after the removal of treatment on 35th day.

For COc1ccc(Cl)cc1C(=O)NCCc1ccc(S(=O)(=O)NC(=O)NC2CCCCC2)cc1 [Glyburide], the “Blood sugar level (reading)” value (Alloxan diabetic mice [1]; 2 hour) was 317.50, the “Summary in percentage (Blood sugar level)” value (from here on “Summary in percentage”) (Alloxan diabetic mice [1]; 2 hour) was 15% and the “Blood sugar level (reading)” value (Alloxan diabetic mice [1]; 4 hour) was 266.16. For the same molecule, the “Summary in percentage” value (Alloxan diabetic mice [1]; 4 hour) was 29%, the “Blood sugar level (reading)” value (Alloxan diabetic mice [1]; 6 hour) was 149.50 and the “Summary in percentage” value (Alloxan diabetic mice [1]; 6 hour) was 60%. For the same molecule, the “Blood sugar level (reading)” value (Alloxan diabetic mice [1]; 24 hour) was 228.66, the “Summary in percentage” value (Alloxan diabetic mice [1]; 24 hour) was 39% and the “Blood sugar level (reading)” value (Alloxan diabetic mice [1]; Normal (before administration)) was 374.33. For the same molecule, the “Blood sugar level (reading)” value (Alloxan diabetic mice [2]; Normal (before treatment)) was 396.09, the “Blood sugar level (reading)” value (Alloxan diabetic mice [2]; day 7) was 323.46 and the “Summary in percentage” value (Alloxan diabetic mice [2]; day 7) was 18%. For the same molecule, the “Blood sugar level (reading)” value (Alloxan diabetic mice [2]; day 14) was 265.46, the “Summary in percentage” value (Alloxan diabetic mice [2]; day 14) was 33% and the “Blood sugar level (reading)” value (Alloxan diabetic mice [2]; day 21) was 170.82. The “Summary in percentage” value (Alloxan diabetic mice [2]; day 21) was 57%, the “Blood sugar level (reading)” value (Alloxan diabetic mice [2]; day 28) was 137.90 and the “Summary in percentage” value (Alloxan diabetic mice [2]; day 28) was 65%.
